Test results published in publication PMC8712301, “Novel CYP11B-ligand [^123/131I]IMAZA as promising theranostic tool for adrenocortical tumors: comprehensive preclinical characterization and first clinical experience” (European Journal of Nuclear Medicine and Molecular Imaging, 2021).

What was measured:
[1] = system: advanced ACC; assay: Diagnostic imaging and biokinetics with [123I]IMTO and [123I]IMAZA in patients with advanced ACC; format: in vivo, human; parameters: AUC (time integral of the uptake function): concentration or dose not given beside the values
Method: Three patients (#1, #2, and #3) were investigated by [^123I]IMAZA (administered doses, 117, 163, and 182 MBq, respectively) and subsequently by [^123I]IMTO (176, 169, and 146 MBq, respectively). The time interval between the imaging studies was at least 5 days. Scintigraphic imaging was performed using a Siemens Symbia dual-head gamma camera equipped with medium-energy parallel-hole collimators. Activity concentration was measured in whole blood samples drawn at 2 min, 5 min, 15 min, 1 h, 2.5 h, 5 h, and 23 h after the administration. Plasma activity was analyzed in patient #1.

[2] = system: NCI-H295 cells; assay: Cellular subfractionation of NCI-H295 cells exposed to 125I-labeled tracers; format: cell-based, human
Method: (§1) NCI-H295 cells (n = 250,000 per vial) were incubated with 0.1 MBq of the respective ^125I-labeled tracer at 37 °C, 5% CO2. For the blocking experiment, the cells were co-incubated with etomidate. Aliquots were taken and immediately placed into a 4 °C ice bath. After 5 min, the solution was centrifuged and rinsed twice with PBS/0.5% Tween 80, and the collected rinse solution was measured in a gamma counter. Assays were performed in triplicates. The intracellular distribution of the respective ^125I-labeled inhibitors and the specific binding to mitochondrial membranes were verified using a commercially available kit (Qiagen Qproteome Mitochondria isolation).
(§2) Fig. 3 a In vitro uptake kinetics of [^125I]IMTO, [^125I]IMAZA, [^125I]3, and [^125I]4 in NCI-H295 cells. b Cellular uptake of [^125I]IMTO, [^125I]IMAZA, [^125I]3, and [^125I]4 in NCI-H295 cells with and without co-incubation with etomidate. Cells were incubated with 0.1 MBq of the respective compounds and co-incubated with (0.1 µM, 10 µM, 100 µM) etomidate to monitor the specific uptake (n = 3). c Cellular subfractionation of NCIH295 cells exposed to 0.1 MBq [^125I]IMTO, [^125I]IMAZA, [^125I]3, and [^125I]4 for 30 min at 37 °C. Distribution of the tracer compounds among the respective cellular subfractions

[3] = system: adrenal gland; assay: Biodistribution in male CD-1 mice; format: in vivo; conditions: for Uptake in the adrenals: i.v. 0.1 MBq
Method: Six- to 8-week old male CD-1 mice received 0.1 MBq [^125I]IMTO [17] or the ^125I-labeled IMTO-analogues as intravenous injection in the tail vein. At predefined time points, mice were sacrificed (min. n = 5 per time point). Blood and urine were collected, and several organs were excised and weighed, and tracer uptake was determined by measurement in a γ-counter.
Fig. 4 Biodistribution of [^125I]IMTO and the new compounds [^125I]IMAZA, [^125I]3, and [^125I]4 in male CD-1 mice. Mice were injected i.v. with 0.1 MBq of respective compounds. Ex vivo organ dosimetry was performed at predefined time points 15 min, 30 min, 120 min, and 240 min after tracer injection. Results are expressed as percentage of injected dose per gram organ (%ID/g). Exact numbers on uptake in the adrenal as %ID/g for the compounds are given in the supplemental data

[4] = Metabolic inactivation by human liver microsomes in vitro (radio-HPLC); format: in vitro ADME; conditions: human liver microsomes, radio-HPLC
Method: Metabolic degradation was determined by co-incubation of the tracers with human liver microsomes (Sigma, M0317). Experiments were conducted in triplicates. Incubation mixtures consisted of liver microsomes (0.2 mg/ml), the respective ^125I-labeled compound (0.1 MBq), MgCl2 (3.3 mM), and NADPH (1.3 mM) in a total volume of 0.6 ml K3PO4 puffer (25 mM, pH 7.2). The reaction was started with the addition of NADPH and incubated at 37 °C. At predefined time points, aliquots were removed, and the reaction was terminated by adding 160 µL ice-cold methanol. After centrifugation (5000 × g, 4 °C for 4 min), the supernatant was analyzed by radio-HPLC (see experimental details and Supplementary Fig. 1 in Supplement).

[5] = system: NCI-H295 cells; assay: Cell uptake of 125I-labeled tracers in NCI-H295 cells, with and without etomidate; format: cell-based, human; parameters: Intracellular uptake with co-incubation of etomidate: dose or concentration left out as unconfirmed
Method: as §1
as §2, with “were incubated with 0.1 MBq of the respective compounds and co-incubated with (0.1 µM, 10 µM, 100 µM) etomidate to monitor the specific uptake” left out

[6] = system: human adrenocortical and non-adrenocortical tissue cryosections; assay: Autoradiographic binding to human tissue cryosections
Method: Human tissues were quick frozen in liquid nitrogen to block further biological processes including protein degradation and stored at –80 °C. Frozen samples from adrenocortical carcinoma (ACC; n = 3), aldosterone-producing adenoma (APA; n = 2), and cortisol-producing adenoma (CPA; n = 2), normal adrenal, kidney, and liver were sectioned into 20-µm-thick tissue slices, thaw-mounted onto Superfrost slides (PAP PEN, Zymed® Laboratories) and stored at –80 °C until processing. For the experimental set up, the tissue slices were pre-incubated for 5 min at room temperature with buffer solution (pH 7.4, 50 mM Tris). Afterwards, the slices were directly incubated with TRIS HCl buffer solution containing 2% BSA. After 1-h blocking, slides were treated with 0.1 MBq of the different compounds. As controls, slides were incubated with 0.1 MBq of the compounds in 10 µM of the non-radioactive compound to assess binding specificity. In the following, slides were washed twice with 50 mM Tris HCl buffer solution (pH 7.4). For exposure, samples were placed on Phosphor Imager plates for 30 min in dedicated lead-shielded cassettes. Autoradiographic images were analyzed with a CR35BIO Image plate scanner, and data analysis was performed with Amide software version 0.9.0.
Fig. 5 Ex vivo imaging of normal adrenal gland, adrenocortical tumors, and control tissue (kidney, liver). Autoradiographic visualization of [^125I]IMTO and [^125I]IMAZA accumulation in the normal adrenal gland, in adrenocortical tumors (ACC, APA, CPA), kidney, and liver as control tissue (sections with 20 µm slice thickness) (representative example). […] The red circles show the position of the organs that are not shown in the imaging. A = 0.1 MBq tracer, B = 0.1 MBq tracer plus non-radioactive 10 µM inhibitor

[7] = system: metastatic ACC; assay: Dosimetry and endoradiotherapy with [131I]IMAZA in a patient with metastatic ACC; format: in vivo, human
From the text: Patient #1 had experienced disease progression with a more than fourfold increase in their dominant lesions within only 4 months after a phase of disease stabilization after standard treatment with mitotane and eight courses of combination chemotherapy with etoposide, doxorubicin, and cisplatin. They received therapeutic doses with 28.2 GBq [^131I]IMAZA 1 month and with 30.5 GBq [^131I]IMAZA 7 months after the evaluation with [^123I]IMAZA. Prior to the first treatment, the absorbed dose to the blood was measured with a tracer activity of 72 MBq [^131I]IMAZA as a surrogate for the exposure of the dose-limiting organ, the red bone marrow. The absorbed dose to the blood was estimated from assessments of the activity kinetics in total body and blood up to 48 h when the mean activity concentrations had dropped to 5% of the values at 5 min after the administration in the total body and to 1% in the blood. During therapy, the total body activity retention was measured with a survey meter in the ceiling over the patient’s bed. Gamma camera whole body scans accompanied by blood sampling were acquired starting 4 days post-administration after the first and 2 days after the second therapy until dismissal. SPECT/CT imaging was performed after 4 and 5 days, respectively.
Tumor evaluation was performed by [^18F]FDG PET/CT at baseline and 2, 5, 8, 11, 14, and 21 months after administration of the first treatment dose. Subsequently, the patient declined further follow-up imaging or additional therapeutic interventions.

[8] = three patients with advanced ACC
[9] = tumor lesion: patient #1, lesion #1
[10] = tumor lesion: patient #1, lesion #2
[11] = tumor lesion: patient #2, lesion #1
[12] = tumor lesion: patient #3, lesion #1
[13] = tumor lesion: patient #3, lesion #2
[14] = patient #1, pre-therapeutic kinetics assessment with [131I]IMAZA

COC(=O)c1cncn1[C@H](C)c1ccc([123I])cc1 [[^123I]IMTO, [^123I]iodometomidate]
AUC (time integral of the uptake function) ([1]; median of five tumor lesions): 0.0024 h/g
effective half-live ([1]; median of five tumor lesions): 11.0 h
uptake ([1]; median of five tumor lesions): 0.011 %/g
Activity concentration in plasma, times higher than in whole blood ([1]; patient #1, hematocrit 35%): 1.16 times
Residence time per liter of whole blood, times higher than for [123I]IMAZA [1, 8]: 3.6 ± 1.5 times
Total body residence time, times higher than for [123I]IMAZA [1, 8]: 2.2 ± 0.2 times
AUC (time integral of the uptake function) [1, 9]: 0.0031 h/g
effective half-live [1, 9]: 11.2 h
uptake ([1]; tumor lesion: patient #1, lesion #1, SPECT/CT, normalised to administered activity): 0.015 %/g
AUC (time integral of the uptake function) [1, 10]: 0.0024 h/g
effective half-live [1, 10]: 11.0 h
uptake ([1]; tumor lesion: patient #1, lesion #2, SPECT/CT): 0.011 %/g
AUC (time integral of the uptake function) [1, 11]: 0.0016 h/g
effective half-live [1, 11]: 12.4 h
uptake ([1]; tumor lesion: patient #2, lesion #1, SPECT/CT): 0.006 %/g
AUC (time integral of the uptake function) [1, 12]: 0.0017 h/g
effective half-live [1, 12]: 8.0 h
uptake ([1]; tumor lesion: patient #3, lesion #1, SPECT/CT): 0.010 %/g
AUC (time integral of the uptake function) [1, 13]: 0.0056 h/g
effective half-live [1, 13]: 10.1 h
uptake ([1]; tumor lesion: patient #3, lesion #2, SPECT/CT): 0.027 %/g

C[C@H](c1ccc([125I])cc1)n1cncc1C(=O)N1CCC1 [[^125I]IMAZA]
Subcellular distribution compared with [125I]IMTO ([2]; 30 min): similar
Uptake in the non-target organs ([3]; male CD-1 mice): extremely low uptake values
Uptake in the adrenals ([3]; male CD-1 mice, 15 min): 710.9 ± 210.5 %ID/g
Uptake in the adrenals ([3]; male CD-1 mice, 30 min): 720.4 ± 169.7 %ID/g
Uptake in the adrenals ([3]; male CD-1 mice, 120 min): 395.7 ± 92.7 %ID/g
Uptake in the adrenals ([3]; male CD-1 mice, 240 min): 275.4 ± 124.1 %ID/g
Uptake at the latest time point, times higher compared to [125I]IMTO ([3]; mice): 10 times
Tracer uptake and target to background ratios compared with [125I]IMTO ([3]; mice biodistribution): higher tracer uptake with better target to background ratios
Metabolic stability compared with [125I]IMTO [4]: more than threefold longer half-life
Intracellular uptake with co-incubation of etomidate ([5]; NCI-H295 cells): 8.6%
Uptake with co-incubation of etomidate ([5]; NCI-H295 cells, highest concentration 100 µM etomidate): almost completely blocked
Intracellular uptake in NCI-H295 cells compared with [125I]IMTO ([5]; at 30 min): highest uptake
Autoradiographic signal compared with [125I]IMTO ([6]; human adrenocortical tissue): distinctively stronger
Binding to control tissue (liver, kidney) ([6]; human liver n = 2, kidney n = 1): no binding was detected
Binding to ACC, APA, and CPA tissue ([6]; human tissue sections 20 µm, 0.1 MBq tracer, ± 10 µM non-radioactive compound): very strong and specific binding

COC(=O)c1cncn1C(C)c1ccc([125I])cc1 (stereo not drawn) [[^125I]IMTO, reference compound]
Accumulation in the cytosolic fraction ([2]; 0.1 MBq, 30 min at 37 °C): 7%
Accumulation in the mitochondrial subfraction ([2]; 0.1 MBq, 30 min at 37 °C): 59.4%
Accumulation in the nuclei, cell debris subfraction ([2]; 0.1 MBq, 30 min at 37 °C): 33.6%
Uptake in the adrenals ([3]; male CD-1 mice, 15 min): 491.2 ± 170.3 %ID/g
Uptake in the adrenals ([3]; male CD-1 mice, 30 min): 321.3 ± 170.6 %ID/g
Uptake in the adrenals ([3]; male CD-1 mice, 120 min): 80.5 ± 43.7 %ID/g
Uptake in the adrenals ([3]; male CD-1 mice, 240 min): 27.4 ± 25.9 %ID/g
Intracellular uptake with co-incubation of etomidate ([5]; NCI-H295 cells): 28.2%
Intracellular uptake in NCI-H295 cells ([5]; after 30 min, 0.1 MBq tracer, 37 °C): 36.4%

C[C@H](c1ccc([131I])cc1)n1cncc1C(=O)N1CCC1 [[^131I]IMAZA]
Mean blood absorbed dose ([1]; kinetics recalculated for 131I from 123I diagnostics in patients): 0.03 Gy/GBq
Long-term disease stabilization (progression-free survival) ([7]; patient #1, after first treatment): 21 months
Survival (overall survival) ([7]; patient #1, after initial endoradiotherapy): 30 months
Absorbed dose for both the liver and the kidney ([7]; patient #1, estimated): below 0.2 Gy/GBq
Absorbed dose to the blood ([7]; patient #1, first therapy with 28.2 GBq): 1.1 Gy
Activity giving an absorbed dose to the blood of 2 Gy ([7]; patient #1, pre-therapeutic kinetics assessment): 63 GBq
Absorbed dose to the blood [7, 14]: 0.032 Gy/GBq
Residence time in the whole blood [7, 14]: 0.17 h per liter of whole blood
Residence time in the total body ([7]; patient #1, pre-therapeutic kinetics assessment with tracer activity): 10.9 h
